In patent US20240139157A1, “Novel Tubulin Polymerization Inhibitor for Cancer Therapy” (Board of Regents, The University of Texas System, priority 2022, published 2024):

Experiments:
MDA-MB-231 cells = assay: Annexin V assay by flow cytometry (phosphatidylserine externalization); type: cell-based
From the text: Phosphatidylserine externalization is a cellular process that involves the translocation of phosphatidylserine from the inner leaflet of the cell's plasma membrane to the outer leaflet. The externalization of phosphatidylserine is recognized by other cells as a signal for engulfment and removal without causing inflammation or damage.
The plot illustrated in FIG. 3 was generated by Annexin V assay analyzed by flow cytometry showing the externalization of the phospholipid phosphatidylserine (PS). Treatment of MDA-MB-231 cells with PTA-1 at concentrations of 10 μM and 20 μM for 24 hours induces apoptosis as shown by PS externalization. Each bar represents the average of at least three technical replicates.

[1] = Differential nuclear staining cytotoxicity assay, A549; type: cell-based; conditions: human; CC50 in non-cancerous cells divided by CC50 in A549; read-out: Selective cytotoxicity index (SCI)
From the text: (§1) In this illustrative example, PTA-1 can be identified through compound screening by performing differential nuclear staining assay on acute lymphoblastic leukemia CEM T-cell line. Differential nuclear staining assay measures cell viability using Hoechst 33342 fluorescent stain and propidium iodide dyes that stain all nuclei and dead cell nuclei.
(§2) With reference now to FIG. 2, a table for evaluating cytotoxicity of PTA-1 on different cell lines is depicted in accordance with an illustrative embodiment. In FIG. 2, PTA-1 with chemical structure 100 shown in FIG. 1 is tested to determine cytotoxic activities of PTA-1 on different cell lines.
(§3) In table 200, column 202 indicates the type of cells that are used to test cytotoxic activities of PTA-1, column 204 indicates the cell line used to test cytotoxic activities of PTA-1, column 206 indicates the CC50 values for different cell lines, and column 208 indicates the length of time that different cell lines are exposed to PTA-1. […]
(§4) In this illustrative example, the selective cytotoxicity index value is used to determine if a compound has activity preferentially toward cancer cells. […] The selective cytotoxicity index (SCI) value is calculated by dividing the CC50 of the compound in non-cancerous cells (HS27 human fibroblasts or MCF-10A breast epithelial cells) by the CC50 in cancer cells. […]

[2] = test system: A549 cell line for lung cancer; assay: as above; type: cell-based; conditions: A549, among all cancerous cell lines
From the text: as §1, §2, §3, §4

[3] = test system: caspase-3 in MDA-MB-231 cells; assay: Caspase-3 activation, NucView 488 substrate, flow cytometry; type: cell-based
From the text: FIG. 4 depicts a plot illustrating PTA-1 induced caspase-3 activation in accordance with an illustrative embodiment. In FIG. 4, the induction of apoptosis from PTA-1 is corroborated by detecting the activation of the enzyme caspase-3. The fluorogenic reagent NucView 488 caspase-3 substrate was used to detect the activation of caspase 3 via flow cytometry. […] The average of 3 replicates is represented by each bar.
Caspase enzymes are activated during apoptosis and eventually result in DNA cleavage. In this example, caspase-3 is activated after exposure of the MDA-MB-231 cells at a concentration of 10 μM and 20 μM of PTA-1. […] The data shown in FIG. 4 corroborate the induction of apoptosis as the mechanism of cell death.

[4] = Differential nuclear staining cytotoxicity assay, MDA-MB-231; type: cell-based; conditions: human; CC50 in MCF10A divided by CC50 in MDA-MB-231; read-out: Selective cytotoxicity index (SCI)
From the text: as §1, §2, §3, §4

MDA-MB-231 cell line = assay: as above; type: cell-based; conditions: MDA-MB-231, among all cancerous cell lines
From the text: as §1, §2, §3, §4

MDA-MB-231 cell cycle = assay: Cell cycle analysis; type: cell-based
From the text: FIGS. 5A-5D show the percentages of cells that are affected in different phase after treatment of PTA-1.
FIGS. 5A-5D illustrate how PTA-1 alters the progression of the MDA-MB-231 cell cycle. Etoposide is used as a positive control. FIG. 5A illustrates PTA-1 induced DNA fragmentation as denoted in the sub G0/G1 phase.

[5] = test system: microtubules and microfilaments of MDA-MB-231 cells; assay: Cytoskeleton imaging by fluorescence microscopy; type: cell-based; conditions: 10 μM, 4 hours
From the text: FIG. 8 illustrates alterations in cytoskeletal structures of MDA-MB-231 cells in response to treatment with PTA-1 in accordance with an illustrative embodiment. To test the hypothesis that PTA-1 acts as a tubulin inhibitor, we tested if it could cause alterations in the microtubule organization of MDA-MB-231 cells.
Disruption of cellular microtubules of MDA-MB-231 cells can be assessed by imaging microtubules using fluorescence microscopy.

[6] = Differential nuclear staining cytotoxicity assay, NALM6; type: cell-based; conditions: human; CC50 in non-cancerous cells divided by CC50 in NALM6; read-out: Selective cytotoxicity index (SCI)
From the text: as §1, §2, §3, §4

[7] = test system: MCF10A cell line (non-cancerous breast epithelial cells); assay: Differential nuclear staining cytotoxicity assay, MCF10A; type: cell-based; conditions: MCF10A non-cancerous cell line vs cancerous lines
From the text: as §1, §2, §3, §4

tubulin = assay: Tubulin polymerization kinetics (absorbance at 340 nm); type: biochemical
From the text: FIG. 9 depicts a graph illustrating tubulin polymerization of cells treated with PTA-1 in accordance with an illustrative embodiment. Graph 900 illustrates the kinetic curves of four different treatments for tubulin polymerization.
In this illustrative example, absorbance is directly correlated with tubulin polymerization. Therefore, if polymerization happens, there is an increase in the absorbance at 340 nm. […] In graph 900 tubulin polymerization can be clearly observed from the increasing absorbance after treatment with PTX. In this example, tubulin polymerization for cells treated with PTX drops immediately after 10 minutes.

[8] = test system: HS27 human fibroblasts (non-cancerous); assay: Differential nuclear staining cytotoxicity assay, HS27; type: cell-based; conditions: HS27 non-cancerous cell line vs cancerous lines
From the text: as §1, §2, §3, §4

Jurkat cell line = assay: Differential nuclear staining cytotoxicity assay, Jurkat; type: cell-based; conditions: Homo sapiens, read-out: CC50 (50% cytotoxic concentration)
From the text: In this illustrative example, PTA-1 can be identified through compound screening by performing differential nuclear staining assay on acute lymphoblastic leukemia CEM T-cell line. Differential nuclear staining assay measures cell viability using Hoechst 33342 fluorescent stain and propidium iodide dyes that stain all nuclei and dead cell nuclei. With reference now to FIG. 2, a table for evaluating cytotoxicity of PTA-1 on different cell lines is depicted in accordance with an illustrative embodiment. In FIG. 2, PTA-1 with chemical structure 100 shown in FIG. 1 is tested to determine cytotoxic activities of PTA-1 on different cell lines. In table 200, column 202 indicates the type of cells that are used to test cytotoxic activities of PTA-1, column 204 indicates the cell line used to test cytotoxic activities of PTA-1, column 206 indicates the CC50 values for different cell lines, and column 208 indicates the length of time that different cell lines are exposed to PTA-1. […] In this illustrative example, a lower CC50 value for a cell line indicates a higher level of PTA-1 cytotoxicity, meaning that PTA-1 is more toxic to the cell line.

For `OO` [H2O2, reference compound], the “Cell population with phosphatidylserine externalization” value (“Cell population” for short) (MDA-MB-231 cells; positive control) was 49.9%.

In the case of `COc1ccc(-c2cnn(CC(=O)Nc3cnn(C)n3)c2)cc1C(F)(F)F` [PTA-1, 2-{4-[4-methoxy-3-(trifluoromethyl)phenyl]-1H-pyrazol-1-yl}-N-(2-methyl-2H-1,2,3-triazol-4-yl)acetamide], the selectivity ratio [1] is reported as 105, the “Sensitivity to PTA-1 (CC50 comparison)” value [2] is reported as “most sensitive” and the Caspase-3 activation ([3]; 10 μM) is reported as “significantly induced the activation of Caspase 3”. For the same molecule, the Caspase-3 activation ([3]; 20 μM) was “significantly induced the activation of Caspase 3”, the selectivity ratio [4] was 4.73 and the “Sensitivity to PTA-1 (CC50 comparison)” value (MDA-MB-231 cell line) was “least sensitive”. For the same molecule, the “Cell population” value (MDA-MB-231 cells; 10 μM, 24 hours) was 59.4%, the “Cell population” value (MDA-MB-231 cells; 20 μM, 24 hours) was 59.7% and the “Cells in the G2/M phase” value (MDA-MB-231 cell cycle; 1.25 μM) was 53.25%. The “Cells in the S phase” value (MDA-MB-231 cell cycle; 1.25 μM) was 19.8%, the “DNA fragmentation (sub G0/G1 phase) vs DMSO and untreated” value (MDA-MB-231 cell cycle; 1.25 μM) was “significantly higher rates of DNA fragmentations” and the “Cells in the G2/M phase” value (MDA-MB-231 cell cycle; 2.5 μM) was 71.5%. The “Cells in the S phase” value (MDA-MB-231 cell cycle; 2.5 μM) was 15.34%, the “DNA fragmentation (sub G0/G1 phase) vs DMSO and untreated” value (MDA-MB-231 cell cycle; 2.5 μM) was “significantly higher rates of DNA fragmentations” and the “Cells in the G2/M phase” value (MDA-MB-231 cell cycle; 5 μM) was 66.47%. The “Cells in the S phase” value (MDA-MB-231 cell cycle; 5 μM) was 24.6%, the “DNA fragmentation (sub G0/G1 phase) vs DMSO and untreated” value (MDA-MB-231 cell cycle; 5 μM) was “significantly higher rates of DNA fragmentations” and the “Cells in the G0/G1 phase” value (MDA-MB-231 cell cycle; different concentrations) was “did not result in a higher percentage of cells in the G0/G1 phase”. For the same molecule, the “Microfilament structure (phalloidin-Alexa-568 staining)” value [5] was “remained unaltered”, the “Microtubule organization (α-tubulin-Alexa-488 staining)” value [5] was “disrupts the microtubule organization” and the selectivity ratio [6] was 8.65. The “Sensitivity to PTA-1 (CC50 comparison)” value [7] was “significantly lower sensitivity”, the “Absorbance (tubulin polymerization)” value (tubulin; 340 nm, after 60 minutes of treatment, DMSO 0.3702) was 0.3247 and the “Duration of nucleation phase (absorbance starts increasing)” value (tubulin; absorbance at 340 nm) was “four”. For the same molecule, the “Kinetic curve of tubulin polymerization compared with DMSO” value (tubulin; absorbance at 340 nm) was “never reached the absorbance values of cells treated with DMSO”, the “Time to reach steady state of tubulin polymerization” value (tubulin; absorbance at 340 nm) was 20 min and the “Sensitivity to PTA-1 (CC50 comparison)” value [8] was “significantly lower sensitivity”. It also gave a CC50 (Jurkat cell line) of 320 nM.

For `CC[C@]1(O)C[C@@H]2CN(CCc3c([nH]c4ccccc34)[C@@](C(=O)OC)(c3cc4c(cc3OC)N(C)[C@H]3[C@@](O)(C(=O)OC)[C@H](OC(C)=O)[C@]5(CC)C=CCN6CC[C@]43[C@@H]65)C2)C1` [Vinblastine, reference compound], the “Duration of nucleation phase (absorbance starts increasing)” value (tubulin; absorbance at 340 nm) was “four” and the “Kinetic curve of tubulin polymerization compared with DMSO” value (tubulin; absorbance at 340 nm) was “never reached the absorbance values of cells treated with DMSO”.

With `COc1cc([C@@H]2c3cc4c(cc3[C@@H](O[C@@H]3O[C@@H]5CO[C@@H](C)O[C@H]5[C@H](O)[C@H]3O)[C@H]3COC(=O)[C@H]23)OCO4)cc(OC)c1O` [etoposide, reference compound] the “Cells in the G2/M phase” value (MDA-MB-231 cell cycle; positive control) was 15.4% and the “Cells with DNA fragmentation (sub G0/G1 phase)” value (MDA-MB-231 cell cycle; positive control) was 28.6%.

In the case of `CC(=O)O[C@H]1C(=O)[C@@]2(C)[C@H]([C@H](OC(=O)c3ccccc3)[C@]3(O)C[C@H](OC(=O)[C@H](O)[C@@H](NC(=O)c4ccccc4)c4ccccc4)C(C)=C1C3(C)C)[C@]1(OC(C)=O)CO[C@@H]1C[C@@H]2O` [paclitaxel, reference compound], the “Growth phase of tubulin polymerization” value (tubulin; absorbance at 340 nm) is reported as “started immediately” and the “Time after which tubulin polymerization drops” value (tubulin; absorbance at 340 nm) is reported as 10 min.
